Where two headings read alike, the source gives them in different places.
Legend:
calf thymus DNA (ctDNA) = assay: DNA intercalation assay, ethidium bromide displacement; assay type: binding; details: complex 5, 10 and 20 µM; doxorubicin 10 µM; data not shown
Experimental: DNA intercalation was assessed by examining the ability of the complex to displace ethidium bromide from ctDNA (Sigma-Aldrich Co.)[32]. The DNA intercalation assay was conducted in 96-well plate (100 µL) and contained 15 µg/mL ctDNA, 1.5 µM ethidium bromide and 5, 10 and 20 µM of complex in saline solution. The vehicle (0.1% DMSO) used for diluting the compound tested was used as the negative control. Doxorubicin (10 µM) was used as the positive control. Fluorescence was measured using excitation and emission wavelengths of 320 nm and 600 nm, respectively using the spectraMax Microplate Reader (Molecular Devices).

[1] = tested on: PBMC (human peripheral blood mononuclear cells); assay: Cytotoxic activity, alamar blue assay, PBMC non-cancer cells; assay type: cell-based; details: 72 h incubation
[2] = tested on: BAD KO SV40 MEF (BAD gene knockout immortalized mouse embryonic fibroblast); assay: Cytotoxic activity, alamar blue assay, BAD KO SV40 MEF; assay type: cell-based; details: 72 h incubation
[3] = tested on: MRC-5 (human lung fibroblast); assay: Cytotoxic activity, alamar blue assay, MRC-5 non-cancer cells; assay type: cell-based
[4] = tested on: WT SV40 MEF (wild-type immortalized mouse embryonic fibroblast); assay: Cytotoxic activity, alamar blue assay, WT SV40 MEF; assay type: cell-based; details: 72 h incubation
advanced CRC = details: cited from earlier work
[5] = Homo sapiens, MRC5, 72 h incubation

Row | Compound | Ethidium bromide fluorescence (displacement from ctDNA) (calf thymus DNA (ctDNA)) | IC50 ([1]; Homo sapiens, PBMC) | IC50 ([2]; Mus musculus, Fibroblast) | IC50 [3, 5] | IC50 ([4]; Mus musculus, Fibroblast) | Response rates (advanced CRC; 5-FU as a monotherapy) | Response rates (advanced CRC; 5-FU combined with irinotecan and oxaliplatin) | IC50 [1] | IC50 ([3]; 72 h incubation) | IC50 [2] | IC50 [4]
1 | COc1cccc2c1C(=O)c1c(O)c3c(c(O)c1C2=O)C[C@@](O)(C(=O)CO)C[C@@H]3O[C@H]1C[C@H](N)[C@H](O)[C@H](C)O1 [DOX, Doxorubicin] | reduced the fluorescence intensity of ethidium bromide | 5.1 µM | 0.4 µM | 1.6 µM | 0.03 µM |  |  |  |  |  | 
2 | O=c1[nH]cc(F)c(=O)[nH]1 [5-FU, 5-fluorouracil] |  | 78 µM | 7.3 µM | 57.9 µM | 1.7 µM | 10–15% | 40–50% |  |  |  | 
3 | O=C1[O][Pt]2([NH][C@@H]3CCCC[C@H]3[NH]2)[O]C1=O [OXA, oxaliplatin] |  |  |  |  |  |  |  | 12.4 µM | 1.4 µM |  | 
4 | [Ru(5-FU)(PPh3)2(bipy)]PF6 [RU/5-FU] | did not decrease the ethidium bromide fluorescence |  |  |  |  |  |  | 5.7 µM | 9.5 µM | 1.8 µM | 1.9 µM

Reference: publication PMC5762908 (Scientific Reports, 2018)
